Measured values as given in US20150056205A1, “STEROID SPARING AGENTS AND METHODS OF USING SAME” (BIOGEN IDEC MA INC., priority 2004, published 2015).

What was measured:
[1] = test system: subjects with active ulcerative colitis; test: open-label single infusion study in active ulcerative colitis; format: in vivo; details: for mean PTAI score: 9.7 at Week 0
Procedure: Another earlier study was an open-label safety, tolerability, and efficacy study of a single infusion of 3 mg/kg intravenous natalizumab in male and female subjects with active ulcerative colitis.

[2] = test system: subjects with Crohn's disease; test: Phase III maintenance of response and remission study in Crohn's disease (Example 9, second study); format: in vivo, human
Procedure: A double-blind, placebo-controlled study of the efficacy, safety, and tolerability of intravenous Tysabri (natalizumab, 300 mg monthly) in maintaining clinical response and remission in patients with Crohn's Disease (CD) was performed. The objectives were to compare the ability of natalizumab versus placebo to maintain a clinical response in subjects with CD, to compare the ability of natalizumab versus placebo to maintain a clinical remission in subjects with CD, to compare the effects of natalizumab versus placebo on quality of life as measured by the Inflammatory Bowel Disease Questionnaire (IBDQ), and to compare the ability of natalizumab versus placebo to allow subjects to achieve withdrawal of oral steroids.
A Phase III, international, multicenter, randomized, double-blind, placebo-controlled, parallel-group study of subjects with previously active Crohn's disease (CD) (defined as moderately to severely active, CDAI≧220, <450) who have responded to treatment at Week 10 and maintained that response out to Week 12 in a first study (defined as a ≧70 point decrease in baseline CDAI) and whose disease is mildly active (defined as a CDAI score of <220) was undertaken.
Within this group there was a sub-population who had achieved remission (defined as a CDAI score of <150) at Week 10 of the first study. […] Subjects receiving concomitant medications for their CD were permitted to enroll providing that doses remained stable throughout their participation in the first study. All concomitant medications for CD remained stable for the duration of the 12-month treatment phase (up to Month 15) with the exception of oral steroids which were reduced according to a fixed algorithm). At the time this application was filed, only 9 months of data was available.
Natalizumab was administered 300 mg monthly for 12 infusions. The placebo was administered monthly for 12 infusions. Subjects were stratified according to their disease status (remission versus no remission, i.e., a CDAI<150 or ≧150), concomitant use of oral steroids and concomitant use of immunosuppressants.
Once randomized, subjects received their first infusion. Thereafter, they returned to the clinic on a monthly basis (where 1 month is defined as a 4-week period) for assessment and infusion. Introduction of any new medication for CD or a dose change to an existing concomitant medication for CD (with the exception of oral steroids withdrawn according to the fixed algorithm) […] unless deemed necessary for purposes of rescue intervention. Once rescued, such a subject was considered a treatment failure.
Eligible subjects at Week 10 in the first study were consented and enrolled into the second study, in order to allow subjects taking concomitant oral steroids to begin a steroid taper. Subjects who continued to meet the eligibility criteria at Week 12/Month 3, i.e., in time for their next, monthly infusion, were re-randomized and entered the treatment phase which will last up to 12 months in duration (i.e., up to Month 15). Subjects were male or female, eighteen years of age or older.
All subjects receiving oral steroids were required to undergo a taper immediately upon entry into the second study using the following algorithm. Subjects on doses equivalent to >10 mg of prednisolone will begin their taper at a rate of 5 mg every 7 days until they reach a dose of 10 mg. Subjects on doses equivalent to 10 mg of prednisolone were tapered at a rate of 2.5 mg every 7 days until they are completely withdrawn. Subjects taking budesonide were tapered at a rate of 3 mg every 3 weeks.
The ability of natalizumab to maintain mildly active disease (defined as a CDAI score of <220 and no use of rescue intervention) and remission (defined as a CDAI score of <150 and no use of rescue intervention) in subjects with CD was assessed. […]

[3] = test system: pregnant cynomolgus monkeys; test: preliminary reproductive toxicity study; format: in vivo; details: 30 mg/kg group, repeated intravenous doses, Day 31 of gestation after five doses
Procedure: In mice, there is evidence that α4 integrin and VCAM-1 play a role in placental and cardiac development, and they may also play a wider role in fetal development. There is, therefore, a risk of an abortifacient effect or teratogenicity if α4 integrin is blocked by natalizumab. A preliminary reproductive toxicity study exposed groups of five pregnant cynomolgus monkeys to repeated intravenous doses of 0.06, 0.3, or 30 mg/kg natalizumab. One of five pregnant females in the 30 mg/kg group aborted at Day 31 of gestation after receiving five doses of natalizumab. Because the overall rate of abortion fell within the rate of spontaneous abortion in this species, the event was not believed to be related to natalizumab. An ongoing follow-up reproductive toxicity study has exposed groups of 10 to 15 pregnant cynomolgus monkeys to repeated intravenous doses of 3, 10, or 30 mg/kg. Embryo deaths have occurred at similar rates in all treatment groups: two in the control, one in the 3 mg/kg, two in the 10 mg/kg and two in the 30 mg/kg groups respectively. As a precaution, women of childbearing potential must utilize effective contraception throughout the duration of the study and for at least 3 months after the last infusion of study drug, and must have a negative pregnancy test at the time of each natalizumab dosing.

α4 integrin = biological target: T1, α4 integrin (Homo sapiens, UniProt P13612); test: single dose pharmacokinetics and α4 integrin receptor saturation in clinical trials; format: in vivo
T1 construct: endogenous in cells; host or cells: circulating leukocytes of healthy volunteers and MS/IBD subjects (in vivo)
Procedure: The initial dose of natalizumab selected for clinical evaluation was based on non-clinical studies in the guinea pig Experimental Allergic Encephalitis (EAE) model. […] A single dose of 3 mg/kg appeared to provide serum concentrations of natalizumab associated with α4 integrin receptor blockade for up to approximately 3 weeks, and 6 mg/kg for about 6 weeks.
Natalizumab has been evaluated in all clinical trials to date by administration of dose adjusted for bodyweight. […] A single infusion of a higher dose of 6 mg/kg natalizumab produced α4 integrin saturation levels which were slightly higher and more prolonged (approximately 6 weeks).

## natalizumab
[1]; 1 week post-treatment
  mean PTAI score: 6.9
[1]; 2 and 4 weeks after single 3 mg/kg infusion, ten subjects
  subjects with good clinical response (PTAI score ≦5): 50%
[1]; 2 weeks post-treatment
  mean PTAI score: 5.7
[1]; 4 weeks post-treatment
  mean PTAI score: 4.9
[1]; between Weeks 0 and 4
  subjects who received no rescue medication: Seventy percent
[1]; of the 30 adverse events reported
  adverse events considered related to study drug: 3
[1]; ten subjects, single 3 mg/kg
  subjects reporting a serious adverse event: Three
[2]; after 9 months, natalizumab remission population at three months, placebo 25.8%
  patients of the remission population who maintained a response (remission): 43.8%
[2]; after 9 months, natalizumab responder population at three months, placebo 28.8%
  patients who maintained a response: 61.3%
[2]; month 9, of those who took steroids at first study baseline, 300 mg monthly, placebo 17 (22%)
  Remission and not taking steroids, number (%) of subjects: 31 (46%)
[2]; month 9, of those who took steroids at first study baseline, 300 mg monthly, placebo 19 (25%)
  Not taking steroids, number (%) of subjects: 37 (55%)
[2]; placebo 8%
  serious adverse events (SAEs): 7%
[2]; second study
  tapering off steroids: enabled subjects to be successfully tapered off steroids
[3]
  pregnant females that aborted: One of five
α4 integrin; 3 mg/kg infusion
  time serum concentrations, receptor saturation and inhibition of cell adhesion are maintained: 3-4 weeks
α4 integrin; 3 mg/kg infusion, healthy volunteers, subjects with MS and IBD
  natalizumab serum concentrations maintained: 2.5 to 3.0 µg/mL
α4 integrin; human, in vivo
  clearance, dependence on bodyweight: largely independent of bodyweight
α4 integrin; single dose of 3 mg/kg
  duration of serum concentrations associated with α4 integrin receptor blockade: approximately 3 weeks
α4 integrin; single dose of 6 mg/kg
  duration of serum concentrations associated with α4 integrin receptor blockade: about 6 weeks
α4 integrin; single infusion of 6 mg/kg
  duration of α4 integrin saturation: approximately 6 weeks
